Results published in patent US12071488B2, “Method of sensitizing cancer cells to anti-cancer treatment” (TWO TO BIOTECH LTD., priority 2017, dated 2024).

Key:
Type in all cases: cell-based, human
[1] = system: Notch3 receptor; assay: Western blot analysis of Notch3 receptor in membrane fraction of MDA-MB-231 cells
Protocol: MDA-MB-231 cells (0.8×10^6) were seeded on five 75 cm^2 flasks in 25 ml DMEM (41965039 Gibco) medium comprising 10% fetal bovine serum (FBS), Gentamycin Sulfate (03-035-1C Biological industries) and Amphotericin B (03-029-1C Biological industries). Cells were incubated overnight in an incubator. […]
Media was then removed and the cells were scrapped off the flask by a cell scraper into 1.8 ml fresh DMEM media. Cells were collected into 2 ml Eppendorf tubes in two fractions: cytosolic proteins and membrane proteins that were extracted by Membrane Protein Extraction Kit (Thermo scientific #89842). Protease inhibitors (Sigma p2714) and phosphatase inhibitors (Sigma P5726) were added to the Permeabilization and Solubilization Buffers, as recommended by the manufacturer.
Samples were prepared for western blotting as follows: sample buffer (invitrogen cat #NP0007, 4-fold concentrated) and sample reducing agent (Invitrogen cat #NP0009, 10-fold concentrated) were added to each sample and the samples were boiled for 5 minutes. […]
The membrane was washed 3 times using TBST, and the secondary antibody αRabbit-HRP was then added (dilution 1:5000 in 5% milk in TBST) for an incubation of 1 hour at room temperature, with agitation. […] Notch 3 antibody was applied to the membrane and the quantitation of the protein was preformed and calibrated with beta-actin protein.

[2] = system: pancreatic cancer cells BxPC3; assay: Glutathione level in pancreatic cancer cells treated with APC1; details: pancreatic cancer cells (FIG. 18B)
Protocol: (§1) Gluthatione Assay Kit (Sigma CS0260);
(§2) Cell lines (MDA-MB-231, MDA-MB-468) were grown in 75 cm^2 cell culture flask, reached 80-90% confluence. The cells were treated with APC1 (250 μg/ml, 2 times per week for 1 week).
(§3) Cells were washed twice with 10 ml PBS, PBS (5 ml) was added and the cells were collected by scrapping, centrifuged at 300G, 4° C. for 5 minutes, the supernatant was then discarded and the cells were treated with APC1 as indicated above. The values of the Glutathione Standard Solutions were used to determine the standard curve and the delta A412/min equivalent to 1 nmole of reduced glutathione per well was calculated according to manufacturer's instructions.
(§4) As detailed above, the ovarian cancer cells OV90 and OV3, the pancreatic cancer cells BxPC3 and Panel and the TNBC cancer cells MDA-MB-231 and MDA-MB-468 were treated with APC1 and then the relative glutathione levels in these cells was measured as detailed above.

[3] = system: MDA-MB-468 cells; assay: Resazurin cell viability assay with APC1 and cisplatin or doxorubicin, MDA-MB-468 cells; details: MDA-MB-468 pre-incubated with APC1 250 μg/ml; doxorubicin 0.3, 0.5, 1 μM, 48 hours; concentration dependent
Protocol: Cells treated with APC1 were seeded with APC1 at 250 μg/ml. The cells were incubated overnight.
Then the media was aspirated from the plates, and 100 μl of the treatment solutions were added to the appropriate wells, each treatment in triplicates. The cells were incubated for 48 hours.

[4] = system: HER2 receptor; assay: FACS analysis of HER2 receptor expression on MDA-MB-231 cells
Protocol: Cells (MDA-MB-231, MDA-MB-468 and BTS-149) were grown until 70-80% density was reached. Then the growth medium was discarded and the cells were treated with trypsin and medium as described above. After the cells were detached from the surface, the 20 ml cell suspension (namely cells in medium and Trypsin) were transferred into 50 ml conical tubes and centrifuged at 300 g for 10 min in 4° C. Next, the supernatant was discarded and 2 ml fresh medium were added to the cell pellet. Then the cells were fluidized and 13 ml medium was added to the tubes, thereby suspending the cells in a total of 15 ml medium. The cells were counted and seeded at 10.000-15,000 cells/well on chamber slide in 1 ml growing medium. The chamber slide seeded with cells was placed in the hood for 1 hour and then transferred to the incubator for an overnight incubation under the above conditions. The following day the medium was aspirated from the cell chamber slides and discarded and 1 ml cell treatment medium supplemented with APC1 (at a final concentration of 100 or 250 μg/ml) or control (medium only). Medium was added to each one of the wells (aliquots of APC1 were used in order to avoid repeated freeze-thaw cycle). The cells were then incubated for 24-144 hours. […]

[5] = system: ovarian cancer cells OV90 and OV3; assay: Glutathione level in ovarian cancer cells treated with APC1; details: ovarian cancer cells (FIG. 18A)
Protocol: as §1, §2, §3, §4

Sequence: EKGAAFSPIYPRRK (C terminal peptide of KTPAF50) [APC1, polypeptide consisting of the 14 C-terminal amino acid residues of the peptide KTPAF50]
- incubation period with highest Notch3 expression ([1]; APC1 250 μg/ml, 1, 3, 5 or 24 hours): highest for incubations periods of 3 and 5 hours
- expression of active Notch3 receptor on the cell membrane ([1]; APC1 250 μg/ml, membrane protein fraction): increase
- level of glutathione [2]: decreased
- sensitivity to doxorubicin (relative cell viability) [3]: increased the sensitivity
- dependence of HER2 expression on APC1 concentration (FACS) ([4]; 100 μg/ml vs 250 μg/ml APC1): concentration dependent
- HER2 expression (FACS) ([4]; MDA-MB-231 cells, two doses of APC1 at 100 or 250 μg/ml, vs control cells): rise in HER2 expression
- level of glutathione [5]: decreased
